Results: patent US8952010B2, “Amino group-containing pyrrolidinone derivative” (Daiichi Sankyo Company, Limited, priority 2011, dated 2015)
Values after ≈ are worked out from the molar mass of the structure shown.

These compounds were tested on MRSA DB00026 (assay: Measurement of antibacterial activity (MIC), standard methods of the Japanese Society of Chemotherapy). Settings: Staphylococcus aureus; bacteria: MRSA DB00026.
Assay type: cell-based, methicillin-resistant Staphylococcus aureus
Protocol: The measurement method of antibacterial activity of the compound of the present invention was carried out in accordance with the standard methods specified by the Japanese Society of Chemotherapy, and the results are shown in MIC (μg/mL) (Table 1).

| SMILES | MIC |
| --- | --- |
| COc1ccc2ncc(=O)n(CCCCNC3CC(=O)N(c4ccc5c(c4)NC(=O)CO5)C3)c2c1 (stereo not shown) [Example 1, 6-(4-{[4-(7-Methoxy-2-oxoquinoxalin-1(2H)-yl)butyl]amino}-2-oxopyrrolidin-1-yl)-2H-1,4-benzoxazin-3(4H)-one] | 0.12 µg/mL (≈ 0.251 µM) |
| COc1ccc2ncc(=O)n(CCCNC3CC(=O)N(c4ccc5c(c4)NC(=O)CO5)C3)c2c1 (stereo not shown) [Example 2, 6-(4-{[3-(7-Methoxy-2-oxoquinoxalin-1(2H)-yl)propyl]amino}-2-oxopyrrolidin-1-yl)-2H-1,4-benzoxazin-3(4H)-one] | ≤ 0.06 µg/mL |
| COc1ccc2ncc(=O)n(CCCCNC3CC(=O)N(c4ccc5c(c4)NC(=O)CO5)C3)c2n1 (stereo not shown) [Example 15, 6-Methoxy-4-(4-{[5-oxo-1-(3-oxo-3,4-dihydro-2H-1,4-benzoxazin-6-yl)pyrrolidin-3-yl]amino}butyl)pyrido[2,3-b]pyrazin-3(4H)-one] | ≤ 0.06 µg/mL |
| COc1ccc2ncc(=O)n(CCNC[C@H]3CC(=O)N(c4ccc5c(c4)NC(=O)CO5)C3)c2c1 [Example 16, 6-[(4R)-4-({[2-(7-Methoxy-2-oxoquinoxalin-1(2H)-yl)ethyl]amino}methyl)-2-oxopyrrolidin-1-yl]-2H-1,4-benzoxazin-3(4H)-one] | ≤ 0.06 µg/mL |
| COc1ccc2ncc(=O)n(CCNC[C@H]3CC(=O)N(c4ccc5c(n4)NC(=O)CO5)C3)c2c1 [Example 19, 6-[(4R)-4-({[2-(7-Methoxy-2-oxoquinoxalin-1(2H)-yl)ethyl]amino}methyl)-2-oxopyrrolidin-1-yl]-2H-pyrido[3,2-b][1,4]oxazin-3(4H)-one] | ≤ 0.06 µg/mL |
| COc1ccc2ncc(=O)n(CC(O)CNC[C@H]3CC(=O)N(c4ccc5c(n4)NC(=O)CO5)C3)c2n1 (stereo partly drawn) [Example 22, 6-[(4R)-4-({[2-Hydroxy-3-(6-methoxy-3-oxopyrido[2,3-b]pyrazin-4(3H)-yl)propyl]amino}methyl)-2-oxopyrrolidin-1-yl)-2H-pyrido[3,2-b][1,4]oxazin-3(4H)-one] | 0.25 µg/mL (≈ 0.505 µM) |
| COc1ccc2ncc(=O)n(CC(F)CNC[C@H]3CC(=O)N(c4ccc5c(c4)NC(=O)CO5)C3)c2n1 (stereo partly shown) [Example 23] | ≤ 0.06 µg/mL |
